Test results: patent US20210084905A1, “METHODS AND COMPOSITIONS FOR AQUACULTURE” (priority 2018, published 2021)

Legend:
[1] = tested on: bacterial strains seeded into an agar soft overlay; experiment: secretion assay, soft agar overlay (halo of inhibition); type: cell-based; details: secreted antibacterial compound
Method: Many other phenazine molecules including pyocyanin are shown to elicit antibacterial activity often by causing oxidative stress. To test whether the genes hit in the transposon insertion screen are required, two separate genes with insertions (orf6 & orf8) in the region of the operon were precisely deleted in A603 ΔvipA.
The spectrum of inhibition for the putative phenazine molecule was tested by seeding agar with a diverse set of laboratory and environmental strains using A603 ΔvipA and an isogenic double knockout A603 ΔvipA Δorf8 to score inhibition by appearance of a halo around A603 ΔvipA.

[2] = tested on: V. cholerae O1 strain, H1; experiment: sensitivity to the A603 phenazine; type: cell-based
Excerpt: GO annotations were not assigned to these genes thus they were not included in the hypergeometric and GSEA analyses. One gene (TMChrII_2378) encodes a protein with high structural conservation to heme monooxgenase and the other (TMChrI_2040) a dioxygenase that closely resembles a bleomycin resistance proteins. A second dioxygenase (TMChr1_3001) is also among the top induced genes. This family of dioxygenase proteins includes those that can bind and in some cases hydrolyze planar and aromatic antibacterial molecules including phenazines. Though amino acid sequence similarity is poor, the predicted structure of TMChr1_2040 is very similar to EphR, a protein that loosely binds phenazine in producer strains and confers resistance by binding molecules until export.

Q: Which “growth inhibition (halo) in soft agar overlay” value [1] does the source give for `c1ccc2nc3ccccc3nc2c1` [A603 phenazine] here?
A: The value was “broad spectrum antibacterial activity”.

Q: And the “sensitivity of V. cholerae O1 strain H1” value [2]?
A: The value was “very sensitive”.
